Like-named read-outs stand apart in the source and are kept apart here.
Test system: Human PBMC
Experiment: Cytokine production upon human PBMC stimulation (ORN complexed to DOTAP, 16 h, ELISA)
Assay type: cell-based
Details: human PBMC, ORN complexed to DOTAP, 16 h; for EC50: full titration 2 μM to 0.9 nM; for IFN-alpha max activity / TNF-alpha max activity: mean max activity at 0.6 μM, 3-6 blood donors
Method: Human peripheral blood mononuclear cells (PBMCs) were isolated from healthy donors, plated, and stimulated in vitro with various test and control immunostimulatory agents for 16 hours. After 16 hours, the supernatants were collected and then analyzed by ELISA assay. N-U-R1-R2,-Containing Oligoribonucleotides were tested complexed to DOTAP and with full titration curves (7 concentrations), starting from 2 μM ORN complexed to 25 μg/ml DOTAP and with 1/3 dilution steps. Also included were certain negative controls, including medium alone and DOTAP (25 μg/ml culture well; “Liposomes”) alone. The control immunostimulatory agents included the imidazoquinoline R-848 (2 μM with 1/3 dilution steps and 7 concentrations) the reported ligand for TLR7, ORN having TLR8 motifs such as AU and AUU sequences (SEQ ID NO:13-SEQ ID NO:15) ORN having TLR7/8 motifs such as CU, GU and GUU sequences (SEQ ID NO:19-SEQ ID NO:23).
Human PBMC were stimulated with ORN complexed to DOTAP. After 16 hours supernatants were harvested and TNF-alpha and IFN-alpha levels were measured. Mean/Max activities at 0.6 μM of 3-6 blood donors and two individual experiments were determined. […] TLR8 and TLR7/8 ORN are divided by a red line.
Human PBMC were stimulated with ORN complexed to DOTAP. After 16 hours supernatants were harvested and IFN-alpha levels were measured. Mean/Max activities at 0.6 μM and EC50 of full titration curves (range: 2 μM to 0.9 nM) of 3-6 blood donors and two individual experiments were determined. […] Low EC50/high Max activity represents TLR7/8 ORN (FIG. 5a) whereas high EC50 and low Max activity represents TLR8 ORN (FIG. 5b).
The ORN sequences listed in Table 1 were tested for IFN-alpha and TNF-alpha production upon human PBMC stimulation. Human PBMC were stimulated for 16 h with the indicated ORN, and supernatants were harvested and cytokine production measured by ELISA. Table 2 summarizes the min/max activity and EC50 of ORN for IFN-alpha and TNF-alpha production.

| Substance | EC50 (read-out: IFN-alpha EC50) | EC50 (read-out: TNF-alpha EC50) | IFN-alpha max activity | TNF-alpha max activity |
| --- | --- | --- | --- | --- |
| C*C*G*A*G*C*C*G*A*T*U*U*C*A*C*C [SEQ ID NO: 78] (CCGAGCCGANUUCACC; Oligoribonucleotide, chemistry of T and the '*' linkage is not given here, further chemistry not given here) | 6 nM | 241 nM | 1609 pg/mL | 20126 pg/mL |
| C*C*G*A*G*C*C*G*A*T*U*U*C*A*C*C [SEQ ID NO: 79] (CCGAGCCGANUUCACC; Oligoribonucleotide, chemistry of T and the '*' linkage is not given here, further chemistry not given here) | 35 nM | 334 nM | 1152 pg/mL | 17728 pg/mL |
| C*C*G*A*G*C*C*G*A*T*U*U*U*A*C*C (CCGAGCCGANUUUACC; Oligoribonucleotide, chemistry of T and the '*' linkage is not given here, further chemistry not given here) [SEQ ID NO: 59] | 74 nM | 224 nM | 1714 pg/mL | 26762 pg/mL |
| C*C*G*A*G*C*C*G*A*U*A*U*U*A*C*C (CCGAGCCGAUAUUACC; listed as RNA, chemistry not fully specified) [SEQ ID NO: 65] | 1130 nM | 77 nM | 335.2 pg/mL | 39377 pg/mL |
| C*C*G*A*G*C*C*G*A*U*C*U*C*A*C*C (CCGAGCCGAUCUCACC; listed as RNA, chemistry not fully specified) [SEQ ID NO: 69] | 619 nM | 313 nM | 1031 pg/mL | 26915 pg/mL |
| C*C*G*A*G*C*C*G*A*U*C*U*U*A*C*C (CCGAGCCGAUCUUACC; listed as RNA, chemistry not fully specified) [SEQ ID NO: 64] | 577 nM | 289 nM | 1421 pg/mL | 30712 pg/mL |
| C*C*G*A*G*C*C*G*A*U*G*U*U*A*C*C (CCGAGCCGAUGUUACC; listed as RNA, chemistry not fully specified) [SEQ ID NO: 66] | 558 nM | 51 nM | 1616 pg/mL | 43098 pg/mL |
| C*C*G*A*G*C*C*G*A*U*T*U*T*A*C*C (CCGAGCCGAUTUTACC; Oligoribonucleotide, chemistry of T and the '*' linkage is not given here, further chemistry not given here) [SEQ ID NO: 70] | 132 nM | 150 nM | 1702 pg/mL | 44904 pg/mL |
| C*C*G*A*G*C*C*G*A*U*U*C*T*A*C*C (CCGAGCCGAUUCNACC; Oligoribonucleotide, chemistry of T and the '*' linkage is not given here, further chemistry not given here) [SEQ ID NO: 75] | 1300 nM | 129 nM | 929.9 pg/mL | 27576 pg/mL |
| C*C*G*A*G*C*C*G*A*U*U*G*A*A*C*C (CCGAGCCGAUUGAACC; listed as RNA, chemistry not fully specified) [SEQ ID NO: 76] | 1540 nM | 109 nM | 448.6 pg/mL | 26371 pg/mL |
| C*C*G*A*G*C*C*G*A*U*U*G*C*A*C*C (CCGAGCCGAUUGCACC; listed as RNA, chemistry not fully specified) [SEQ ID NO: 74] | 419 nM | 329 nM | 609.1 pg/mL | 30958 pg/mL |
| C*C*G*A*G*C*C*G*A*U*U*U*A*A*C*C (CCGAGCCGAUUUAACC; listed as RNA, chemistry not fully specified) [SEQ ID NO: 73] | 55 nM | 163 nM | 1395 pg/mL | 31619 pg/mL |
| C*C*G*A*G*C*C*G*A*U*U*U*C*A*C*C (CCGAGCCGAUUUCACC; listed as RNA, chemistry not fully specified) [SEQ ID NO: 71] | 51 nM | 160 nM | 1626 pg/mL | 45164 pg/mL |
| C*C*G*A*G*C*C*G*A*U*U*U*T*A*C*C (CCGAGCCGAUUUNACC; Oligoribonucleotide, chemistry of T and the '*' linkage is not given here, further chemistry not given here) [SEQ ID NO: 72] | 75 nM | 146 nM | 1896 pg/mL | 38811 pg/mL |
| C*C*G*A*G*C*C*G*C*A*A*U*U*C*C*C [SEQ ID NO: 50] (CCGAGCCGCAAUUCCC; listed as RNA, chemistry not fully specified) | 562 nM | 564 nM | 2614 pg/mL | 11141 pg/mL |
| C*C*G*A*G*C*C*G*C*A*A*U*U*C*C*C [SEQ ID NO: 52] (CCGAGCCGCAAUUCCC; listed as RNA, chemistry not fully specified) | 508 nM | 895 nM | 2263 pg/mL | 11920 pg/mL |
| C*C*G*A*G*C*C*G*C*A*U*A*A*C*C*C (CCGAGCCGCAUAACCC; listed as RNA, chemistry not fully specified) [SEQ ID NO: 41] | > 2000 nM | 897 nM | 97.97 pg/mL | 10756 pg/mL |
| C*C*G*A*G*C*C*G*C*A*U*A*C*C*C*C (CCGAGCCGCAUACCCC; listed as RNA, chemistry not fully specified) [SEQ ID NO: 45] | 1700 nM | 754 nM | 98.44 pg/mL | 10491 pg/mL |
| C*C*G*A*G*C*C*G*C*A*U*A*U*C*C*C (CCGAGCCGCAUAUCCC; listed as RNA, chemistry not fully specified) [SEQ ID NO: 36] | ≥ 1500 nM | 850 nM | 110.4 pg/mL | 18063 pg/mL |
| C*C*G*A*G*C*C*G*C*A*U*C*C*C*C*C (CCGAGCCGCAUCCCCC; listed as RNA, chemistry not fully specified) [SEQ ID NO: 46] | > 2000 nM | 765 nM | 74.76 pg/mL | 7096 pg/mL |
| C*C*G*A*G*C*C*G*C*A*U*U*A*C*C*C (CCGAGCCGCAUUACCC; listed as RNA, chemistry not fully specified) [SEQ ID NO: 48] | 750 nM | 801 nM | 543.4 pg/mL | 9988 pg/mL |
| C*C*G*A*G*C*C*G*C*A*U*U*C*C*C*C (CCGAGCCGCAUUCCCC; listed as RNA, chemistry not fully specified) [SEQ ID NO: 54] | 780 nM | 339 nM | 1233 pg/mL | 12595 pg/mL |
| C*C*G*A*G*C*C*G*C*C*G*C*C*C*C*C (CCGAGCCGCCGCCCCC; listed as RNA, chemistry not fully specified) [SEQ ID NO: 35] | > 2000 nM |  | 70.6 pg/mL | 2854 pg/mL |
| C*C*G*A*G*C*C*G*C*C*U*A*A*C*C*C (CCGAGCCGCCUAACCC; listed as RNA, chemistry not fully specified) [SEQ ID NO: 43] | > 2000 nM | 954 nM | 144.3 pg/mL | 10261 pg/mL |
| C*C*G*A*G*C*C*G*C*C*U*A*C*C*C*C (CCGAGCCGCCUACCCC; listed as RNA, chemistry not fully specified) [SEQ ID NO: 47] | ≥ 1500 nM | 566 nM | 271.9 pg/mL | 14265 pg/mL |
| C*C*G*A*G*C*C*G*C*U*A*U*A*C*C*C (CCGAGCCGCUAUACCC; listed as RNA, chemistry not fully specified) [SEQ ID NO: 37] | ≥ 1500 nM | 750 nM | 240.5 pg/mL | 22800 pg/mL |
| C*C*G*A*G*C*C*G*C*U*A*U*C*C*C*C (CCGAGCCGCUAUCCCC; listed as RNA, chemistry not fully specified) [SEQ ID NO: 55] | > 2000 nM | 337 nM | 224.4 pg/mL | 15154 pg/mL |

— patent publication US8354522B2, “Immunostimulatory oligoribonucleotides” (Coley Pharmaceutical GmbH, priority 2005, dated 2013)
